Ends that are not written are not given here.
How the values were obtained:
Format in all cases: cell-based, human
T-cells = test: PBMC culture pulsed with long polypeptide, restimulation, intracellular cytokine (IFNγ) assay, healthy donors; parameters: key to Testing (confirmed immunogenicity in healthy donors): *: Represents polypeptides confirmed to be immunogenic in 4/4 healthy donors.; ¶: Represents polypeptides confirmed to be immunogenic in one healthy donor; details: for immunogenicity (frequency of antigen-specific T-cells): FIGS. 4C and 4D, unvaccinated HLA-A2.1+ healthy volunteers; for immune response by antigen specific IFNγ production: FIGS. 4C and D, CD4+ and CD8+ T cells, four healthy donors, background subtracted
Description: The SEA polypeptides, CMV long polypeptide, and VNTR polypeptide were tested in a culture system. Briefly, bulk peripheral blood mononuclear cells (PBMC) were thawed and exposed to GM-CSF on day 0 in culture. […] On day 2, media was washed out, and the cells were split 1:6 in fresh media containing IL-7 for T-cell expansion. Further splits occurred with simple addition of more media containing IL-7 depending upon acidity of the media between days 7-15. On day 16, an antigen specific restimulation of T-cell cultures was performed utilizing fresh PBMC as the antigen presenting cells. These fresh PBMC were thawed on day 14 and treated the same way as the initial culture on days 0-1, before being used on day 16. At the time of restimulation, an intracellular cytokine assay was performed. The T-cell cultures also were allowed to proliferate for an additional […] in media containing IL-7. At the end of culture, day 28, T-cells were further tested with a new intracellular cytokine assay utilizing fresh PBMC, prepared the same way as the PBMC used on day 16 for the first intracellular cytokine assay. Representative dot-plots for IFNγ levels are shown for the CMV pp65 polypeptide and the SEA2 polypeptide, with levels being much lower when T-cells were not restimulated with the same polypeptide they saw at the initiation of culture. […] Each data point represents the level of IFNγ after subtracting the levels of IFNγ from restimulation with irrelevant polypeptides or no polypeptide from levels when T-cells were restimulated with the original polypeptide.
The synthesized long peptides were individually pulsed onto GM+R848+LPS conditioned PBMC cultures established from unvaccinated HLA-A2.1+ healthy volunteers, then expanded in rhIL-7 or rhIL-7+rhIL-2. […] Proliferation of CD4+ and CD8^+ T-cells was indistinguishable, with both subsets retaining their initial proportionality during expansion.

MDA-MB-231.MUC1 = test: Cr51 release lysis by peptide-driven T-cells; details: T-cells from 3 donors; FIG. 6
From the text: T-cells from GM+R848+LPS conditioned PBMC driven by either SEA2 or SEA1 long peptides not only specifically recognized one or both of these sensitizing peptides at restimulation, but also preferentially lysed the HLA-A2.1+ human breast cancer line MDA-MB-231 transduced to express MUC1 (MDA-MB-231.MUC1) compared to MDA-MB-231.Neo control targets. […] Polyclonally driven T-cells from all 3 donors lysed MDA-MB-231.MUC1 indistinguishably from MDA-MB-231.Neo.

SEA1-specific T-cells = test: Effect of C-terminal amidation on sensitizing Ag-specific IFNγ T cells; details: FIG. 9; one healthy donor; versus SEA1 without C-terminal amidation
From the text: Amidated polypeptides were amidated at the C-terminus as described elsewhere (see, e.g., Brinckerhoff et al., Int. J. Cancer 83 (3): 326-34 (1999)).
A cocktail of peptides such as SEA1, SEA1-amide, acetyl-SEA1 and acetyl-SEA1-amide can be used to capture a broadened SEA1 response (or similarly for any other peptide).

Row | Substance | Testing (confirmed immunogenicity in healthy donors) (T-cells) | other results
1 | 3 (NRPALGSTAPPVHNVTSASGSASGSASTLV; immunogenic polypeptide) [compound 3] | */MUC1 | 
2 | 5 (STSPQLSTGVSFFFLSFHISNLQFNSSLEDPSTD; immunogenic polypeptide) [compound 5] | */MUC1 | 
3 | 6 (STDYYQELQRDISEMFLQIYKQGGFLGLSNIKFRPGSVV; immunogenic polypeptide) [compound 6] | */MUC1 | 
4 | 7 (VHDVETQFNQYKTEAASRYNLTISDVSVSDVPFP; immunogenic polypeptide) [compound 7] | */MUC1 | 
5 | 11 (LSFLQDIQEVQGYVLIAHNQVRQVPLQRL; immunogenic polypeptide) [compound 11] | ¶/HER2 | 
6 | 12 (AHNQVRQVPLQRLRIVRGTQLFEDNYALA; immunogenic polypeptide) [compound 12] | ¶/HER2 | 
7 | 13 (TEILKGGVLIQRNPQLCYQDTILWKDIFH; immunogenic polypeptide) [compound 13] | ¶/HER2 | 
8 | 14 (YQDTILWKDIFHKNNQLALTLIDTNRSRACHPC; immunogenic polypeptide) [compound 14] | ¶/HER2 | 
9 | 16 (NIQEFAGCKKIFGSLAFLPESFDGDP; immunogenic polypeptide) [compound 16] | ¶/HER2 | 
10 | 17 (VFETLEEITGYLYISAWPDSLPDLSV; immunogenic polypeptide) [compound 17] | ¶/HER2 | 
11 | 18 (DLSVFQNLQVIRGRILHNGAYSLTLQGLG; immunogenic polypeptide) [compound 18] | ¶/HER2 | 
12 | 20 (ELGSGLALIHHNTHLCFVHTVPW; immunogenic polypeptide) [compound 20] | ¶/HER2 | 
13 | 24 (IKRRQQKIRKYTMRRLLQETELVEPLTPS; immunogenic polypeptide) [compound 24] | ¶/HER2 | 
14 | 26 (GVGSPYVSRLLGICLTSTVQLVTQLM; immunogenic polypeptide) [compound 26] | ¶/HER2 | 
15 | 29 (DLAARNVLVKSPNHVKITDFG; immunogenic polypeptide) [compound 29] | ¶/HER2 | 
16 | 30 (DGGKVPIKWMALESILRRRFTHQS; immunogenic polypeptide) [compound 30] | ¶/HER2 | 
17 | 33 (SECRPRFRELVSEFSRMARDPQRFVVIQ; immunogenic polypeptide) [compound 33] | ¶/HER2 | 
18 | 57 (GVGSPYVSRLLGICLTSTVQLV; immunogenic polypeptide) [compound 57] | ¶/HER2 | 
19 | AHGVTSAPDTRPAPGSTAPPAHGV [VNTR, reference compound] |  | immunogenicity (frequency of antigen-specific T-cells) (T-cells): reproducibly less effective
20 | SPQLSTGVSFFFLSFHISNLQFNSSLEDPSTD [SEA1] |  | immunogenicity (frequency of antigen-specific T-cells) (T-cells): highly immunogenic; immune response by antigen specific IFNγ production (T-cells): consistently exhibited an immune response; lysis of MDA-MB-231.MUC1 compared to MDA-MB-231.Neo control targets (MDA-MB-231.MUC1): significantly more
21 | SPQLSTGVSFFFLSFHISNLQFNSSLEDPSTD-amide (SPQLSTGVSFFFLSFHISNLQFNSSLEDPSTD-NH2) [SEA1-amide, SEA1 amidated at the C-terminus] |  | SEA1-specific CD8+ T-cell response (SEA1-specific T-cells): less affected by amidation; sensitizing SEA1-specific CD4+ IFNγ-producing T-cells (SEA1-specific T-cells): far superior
22 | SQEPMSIYVYALPLKMLNIPSINVHHYP [SEQ ID NO: 1] |  | immunogenicity (frequency of antigen-specific T-cells) (T-cells): highly immunogenic; immune response by antigen specific IFNγ production (T-cells): consistently exhibited an immune response
23 | STDYYQELQRDISEMFLQIYKQGGFLGLSNIKFRPGSVV [SEA2] |  | immunogenicity (frequency of antigen-specific T-cells) (T-cells): highly immunogenic; immune response by antigen specific IFNγ production (T-cells): consistently exhibited an immune response; lysis of MDA-MB-231.MUC1 compared to MDA-MB-231.Neo control targets (MDA-MB-231.MUC1): significantly more

From patent publication US12622956B2, “Methods and vaccines for inducing immune responses to multiple different MHC molecules” (Mayo Foundation for Medical Education and Research, priority 2015, dated 2026)
